From the NIST ThermoML archive (doi:10.1021/acs.jced.6b00232)

Experiment: mn = molality of the nth substance listed, in mol/kg
Conditions: 84.5 kPa, Liquid; for speed of sound: Frequency=3 MHz, Sing-around technique in a fixed-path interferometer; for mass density: Vibrating tube method

OC[C@H]1O[C@@](CO)(O[C@H]2O[C@H](CO)[C@@H](O)[C@H](O)[C@H]2O)[C@@H](O)[C@@H]1O [D-sucrose] + O
Conditions | mass density, 288.15 K [kg/m3] | mass density, 293.15 K [kg/m3] | mass density, 298.15 K [kg/m3] | mass density, 303.15 K [kg/m3] | mass density, 308.15 K [kg/m3] | speed of sound, 288.15 K [m/s] | speed of sound, 293.15 K [m/s] | speed of sound, 298.15 K [m/s] | speed of sound, 303.15 K [m/s] | speed of sound, 308.15 K [m/s]
m1 = 0.09036 | 1010.86 | 1009.89 | 1008.67 | 1007.22 | 1005.55 | 1475.4 | 1491.1 | 1504.9 | 1516.9 | 1527.3
m1 = 0.1217 | 1014.83 | 1013.84 | 1012.59 | 1011.12 | 1009.43 | 1478.5 | 1494 | 1507.7 | 1519.6 | 1529.8
m1 = 0.1537 | 1018.82 | 1017.8 | 1016.53 | 1015.04 | 1013.34 | 1481.6 | 1497 | 1510.6 | 1522.3 | 1532.5
m1 = 0.2538 | 1030.98 | 1029.88 | 1028.55 | 1027 | 1025.25 | 1491.5 | 1506.4 | 1519.5 | 1530.9 | 1540.7
m1 = 0.3245 | 1039.25 | 1038.1 | 1036.73 | 1035.14 | 1033.35 | 1498.3 | 1513 | 1525.8 | 1537 | 1546.5
m1 = 0.5156 | 1060.41 | 1059.13 | 1057.64 | 1055.96 | 1054.09 | 1516.8 | 1530.7 | 1542.8 | 1553.2 | 1562
m1 = 0.729 | 1082.25 | 1080.85 | 1079.25 | 1077.46 | 1075.5 | 1537.3 | 1550.2 | 1561.5 | 1571.1 | 1579.2
m1 = 0.9736 | 1105.1 | 1103.56 | 1101.84 | 1099.96 | 1097.9 | 1559.9 | 1571.9 | 1582.2 | 1591 | 1598.4
m1 = 1.252 | 1128.74 | 1127.07 | 1125.24 | 1123.25 | 1121.11 | 1585.2 | 1596.1 | 1605.4 | 1613.3 | 1619.7
m1 = 1.573 | 1153.12 | 1151.33 | 1149.38 | 1147.28 | 1145.06 | 1613 | 1622.7 | 1630.9 | 1637.7 | 1643.2
m1 = 1.948 | 1178.48 | 1176.55 | 1174.48 | 1172.29 | 1169.98 | 1643.8 | 1652.1 | 1659.1 | 1664.8 | 1669.3
